Reference: paper PMC8187357 (Communications Biology, 2021)

How the values were obtained:
NeuropeptideY Y1,Y2 = assay: CEREP 80 panel binding: NeuropeptideY; details: 10 µM
Description: (§1) CEREP 80 panel assay was carried out by Eurofins Cerep Panlabs facility at France. A series of binding assays was carried out to understand the off-target toxicity of CA-170. CA-170 was tested at 10 μM test concentration in duplicates. Compound binding was calculated as a % inhibition of the binding of a radioactively labeled ligand specific for each target. In each experiment the respective reference compound was tested concurrently with CA-170, and the data were compared with historical values determined at Eurofins. The experiment was accepted in accordance with Eurofins validation standard operating procedure. The results are expressed as a percent of control specific binding; (measured specific binding / control specific binding) × 100 and as a percent inhibition of control specific binding; 100−(measured specific binding / control specific binding) × 100 obtained in the presence of CA-170. The IC50 values (concentration causing a half-maximal inhibition of control specific binding) and Hill coefficients (nH) were determined by non-linear regression analysis of the competition curves generated with mean replicate values using Hill equation curve fitting.

[1] = test system: advanced (stage 4) non-squamous NSCLC; set-up: method as in doi:10.1093/annonc/mdz253.035; details: Phase 2, cited from earlier work
PD-L2 [2] = biological target: T1, PD-L2 (Homo sapiens, UniProt Q9BQ51); assay: Rescue of proliferation inhibited by PD-L2, human PBMC; type: cell-based; details: mean ± S.D.; n=3
T1 construct: purchased R&D systems 1224-PL-100
T1 sequence (Q9BQ51 with tags, fused parts or gaps limits assumed): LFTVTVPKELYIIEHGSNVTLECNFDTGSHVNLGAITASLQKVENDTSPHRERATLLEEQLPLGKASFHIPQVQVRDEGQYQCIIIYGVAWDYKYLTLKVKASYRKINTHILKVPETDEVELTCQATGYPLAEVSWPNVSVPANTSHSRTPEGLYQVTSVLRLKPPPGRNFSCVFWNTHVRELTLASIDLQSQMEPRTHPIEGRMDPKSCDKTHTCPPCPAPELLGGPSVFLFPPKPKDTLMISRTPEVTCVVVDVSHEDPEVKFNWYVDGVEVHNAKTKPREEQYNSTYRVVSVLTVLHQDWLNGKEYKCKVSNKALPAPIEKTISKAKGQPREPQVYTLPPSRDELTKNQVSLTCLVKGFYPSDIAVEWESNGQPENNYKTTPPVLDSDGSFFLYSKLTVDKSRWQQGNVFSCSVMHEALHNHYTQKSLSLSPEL
Description: (§2) The ability of peptides, peptidomimetics, and small molecules were analyzed for their ability to rescue T-cell proliferation or IFN-γ release from the inhibitory activity of PD-L1 or PD-L2 in a splenocyte/PBMC-based functional assay as per the protocols reported in publication. […] For all in vitro assays, test agent stock was prepared in water and diluted further in the assay media to achieve test concentrations. Each experimental condition was carried out in triplicates. Percent rescue for a given test compound concentration was calculated by normalizing individual percent test agent proliferation or IFN-γ release values to percent anti-CD3 and anti-CD28 antibodies stimulated proliferation or IFN-γ release. EC50 values were derived by plotting transformed data into non-linear fit in sigmoidal dose–response curve using GraphPad Prism software (Version 7).

Melatonin MT1 = biological target: T2, Melatonin MT1 (Homo sapiens, UniProt P48039); assay: CEREP 80 panel binding: Melatonin; details: read-out: % Inhibition of Control Specific Binding
T2 construct: Eurofins Cerep Panlabs (contract assay)
T2 sequence (P48039 whole entry): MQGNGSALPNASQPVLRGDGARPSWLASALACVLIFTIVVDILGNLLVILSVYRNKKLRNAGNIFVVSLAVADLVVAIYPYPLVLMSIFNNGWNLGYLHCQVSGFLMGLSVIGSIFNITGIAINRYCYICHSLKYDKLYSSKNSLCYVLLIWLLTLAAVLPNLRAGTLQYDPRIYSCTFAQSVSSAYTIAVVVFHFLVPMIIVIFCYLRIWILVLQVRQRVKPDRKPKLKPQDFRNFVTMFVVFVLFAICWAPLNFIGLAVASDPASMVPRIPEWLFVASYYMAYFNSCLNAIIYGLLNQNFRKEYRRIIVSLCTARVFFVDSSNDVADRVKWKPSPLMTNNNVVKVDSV
Description: as §1

PACAP,VIP1 = assay: CEREP 80 panel binding: VIP; details: 10 µM
Description: as §1

Vasopressin V1a = biological target: T3, Vasopressin V1a (Homo sapiens, UniProt P37288); assay: CEREP 80 panel binding: Vasopressin; details: read-out: % Inhibition of Control Specific Binding
T3 construct: Eurofins Cerep Panlabs (contract assay)
T3 sequence (P37288 whole entry): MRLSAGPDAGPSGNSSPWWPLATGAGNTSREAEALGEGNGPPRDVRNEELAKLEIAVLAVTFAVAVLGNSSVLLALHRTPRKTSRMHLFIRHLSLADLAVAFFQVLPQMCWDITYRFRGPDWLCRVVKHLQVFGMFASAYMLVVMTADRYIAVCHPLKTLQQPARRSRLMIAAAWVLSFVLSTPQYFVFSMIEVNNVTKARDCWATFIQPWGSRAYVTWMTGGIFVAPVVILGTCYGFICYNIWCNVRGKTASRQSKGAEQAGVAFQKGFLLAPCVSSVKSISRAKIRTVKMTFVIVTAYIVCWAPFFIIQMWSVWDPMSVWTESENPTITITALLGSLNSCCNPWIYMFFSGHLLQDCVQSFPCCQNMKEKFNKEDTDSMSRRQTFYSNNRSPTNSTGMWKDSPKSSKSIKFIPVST
Description: as §1

Histamine H1,H2 = assay: CEREP 80 panel binding: Histamine; details: 10 µM
Description: as §1

[3] = Tolerability in the in vivo pharmacological studies (body weights, clinical signs); details: all in vivo pharmacological studies
Sigma = assay: CEREP 80 panel binding: Sigma; details: 10 µM
Description: as §1

Bombesin BB = assay: CEREP 80 panel binding: Bombesin; details: 10 µM
Description: as §1

PD-L1 [4] = biological target: PD-L1 (Macaca fascicularis, UniProt G7PSE7); assay: Rescue of proliferation inhibited by PD-L1, monkey PBMC; type: cell-based; details: n=1
PD-L1 (Macaca fascicularis, UniProt G7PSE7), sequence (G7PSE7 19-239): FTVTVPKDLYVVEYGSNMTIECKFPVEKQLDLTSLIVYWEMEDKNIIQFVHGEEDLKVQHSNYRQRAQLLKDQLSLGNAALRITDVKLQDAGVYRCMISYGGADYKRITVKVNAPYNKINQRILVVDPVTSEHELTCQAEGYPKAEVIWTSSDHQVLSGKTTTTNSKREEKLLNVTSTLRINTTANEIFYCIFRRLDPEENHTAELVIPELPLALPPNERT
Description: as §2

[5] = test system: Ion Channels Ca2+, Kv, Skca, Na2+; assay: CEREP 80 panel binding: Ion Channels; details: 10 µM
Description: as §1

[6] = test system: Adrenergic α1, α2, β1, β2; assay: CEREP 80 panel binding: Adrenergic; details: 10 µM
Description: as §1

TNFα = assay: CEREP 80 panel binding: Cytokines; details: 10 µM
Description: as §1

PD-L1 [7] = biological target: T4, PD-L1 (Mus musculus, UniProt Q9EP73); assay: Rescue of PD-L1 mediated inhibition of proliferation, mouse splenocytes; type: cell-based; details: splenocyte-based assay
T4 construct: purchased R&D Systems 1019-B7-100
T4 sequence (Q9EP73 with tags, fused parts or gaps limits assumed): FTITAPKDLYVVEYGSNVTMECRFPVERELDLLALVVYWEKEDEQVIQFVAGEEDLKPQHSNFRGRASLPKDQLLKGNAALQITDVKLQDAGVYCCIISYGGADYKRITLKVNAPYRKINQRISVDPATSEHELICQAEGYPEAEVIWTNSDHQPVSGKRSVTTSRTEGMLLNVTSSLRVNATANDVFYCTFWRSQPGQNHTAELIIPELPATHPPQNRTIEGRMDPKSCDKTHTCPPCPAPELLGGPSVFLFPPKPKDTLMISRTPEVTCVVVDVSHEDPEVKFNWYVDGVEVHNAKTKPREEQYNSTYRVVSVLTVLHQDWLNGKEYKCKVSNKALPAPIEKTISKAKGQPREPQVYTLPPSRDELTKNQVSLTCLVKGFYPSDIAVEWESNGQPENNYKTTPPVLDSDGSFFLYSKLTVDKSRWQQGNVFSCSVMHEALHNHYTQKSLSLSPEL
Description: as §2

[8] = test system: Cholecystokinin CCK1, CCK2; assay: CEREP 80 panel binding: Cholecystokinin; details: 10 µM
Description: as §1

Bradykinin B2 = biological target: T5, Bradykinin B2 (Homo sapiens, UniProt P30411); assay: CEREP 80 panel binding: Bradykinin; details: read-out: % Inhibition of Control Specific Binding
T5 construct: Eurofins Cerep Panlabs (contract assay)
T5 sequence (P30411 whole entry): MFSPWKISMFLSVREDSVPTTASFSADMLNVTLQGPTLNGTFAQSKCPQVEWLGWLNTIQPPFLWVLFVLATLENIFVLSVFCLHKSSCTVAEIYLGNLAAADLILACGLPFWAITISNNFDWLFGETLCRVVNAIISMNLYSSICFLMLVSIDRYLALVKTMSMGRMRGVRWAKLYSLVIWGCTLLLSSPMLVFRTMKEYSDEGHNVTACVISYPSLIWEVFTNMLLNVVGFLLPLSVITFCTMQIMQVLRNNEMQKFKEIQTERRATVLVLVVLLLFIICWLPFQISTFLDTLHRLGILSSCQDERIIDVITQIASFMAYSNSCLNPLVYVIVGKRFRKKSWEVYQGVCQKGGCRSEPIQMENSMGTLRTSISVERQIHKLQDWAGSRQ
Description: as §1

PD-L2 [9] = biological target: T6, PD-L2 (Mus musculus, UniProt Q9WUL5); assay: Rescue of IFN-γ release inhibited by PD-L2, mouse splenocytes; type: cell-based; details: mean ± S.D.; n=2; read-out: Mouse Splenocyte IFN-γ Rescue EC50 PD-L2
T6 construct: purchased R&D Systems 1022-PL-100
T6 sequence (Q9WUL5 with tags, fused parts or gaps limits assumed): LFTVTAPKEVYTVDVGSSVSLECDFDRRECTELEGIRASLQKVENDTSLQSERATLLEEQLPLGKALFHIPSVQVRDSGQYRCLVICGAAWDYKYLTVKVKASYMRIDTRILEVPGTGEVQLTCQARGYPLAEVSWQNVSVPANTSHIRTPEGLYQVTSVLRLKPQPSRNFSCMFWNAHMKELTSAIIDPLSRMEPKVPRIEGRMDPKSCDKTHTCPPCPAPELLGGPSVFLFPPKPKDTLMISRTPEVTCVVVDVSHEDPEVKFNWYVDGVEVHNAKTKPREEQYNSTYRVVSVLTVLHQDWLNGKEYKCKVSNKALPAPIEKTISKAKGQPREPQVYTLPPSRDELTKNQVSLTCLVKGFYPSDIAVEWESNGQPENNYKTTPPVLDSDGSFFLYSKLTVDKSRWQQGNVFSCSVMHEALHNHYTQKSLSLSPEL
Description: as §2

human PBMCs = assay: Cytokine induction in human PBMCs; type: cell-based; details: for IFNγ: 48 h, normal density, replicates
Description: To determine the potential for any unforeseen T-cell agonist activity in humans, a study was conducted where human PBMCs from healthy donors were pre-cultured either at normal density (2 × 10^5 cells/well) or at high density (1 × 10^7 cells/mL) in vitro to increase cell–cell contacts and immune scanning as described[24] and then treated with CA-170 (10 nM to 1000 nM) IL-2, TNF-α and IFN-γ cytokine release was measured in the culture supernatants at 24 and 48 h. Human PBMCs stimulated with anti-CD3 alone or anti-CD3 + anti-CD28 antibodies served as positive controls for cytokine release in this assay.

parental CHO-K1 cells = assay: Cellular NMR (T2), parental CHO-K1 cells; type: binding; details: cell-based NMR; no measurable PD-L1 expression

Description for Plasma stability, rat: Test compounds were tested for plasma stability (test concentration of 10 μM) as per the protocols reported in publication[20].

C[C@@H](O)[C@H](NC(=O)N[C@@H](CC(N)=O)c1nc([C@@H](N)CO)no1)C(=O)O [CA-170]
% Inhibition of Control Specific Binding (NeuropeptideY Y1,Y2): ≤ 78%
PFS ([1]; advanced (stage 4) non-squamous NSCLC): 19.6 weeks
CBR ([1]; daily dose of 400 mg, advanced non-squamous NSCLC): > 85%
EC50 (PD-L2 [2]): 0.0515 µM
inhibition at 10 µM (Melatonin MT1): 5%
% Inhibition of Control Specific Binding (PACAP,VIP1): ≤ 9%
remaining at 4 h, 10 μM (Plasma stability, rat): > 95%
inhibition at 10 µM (Vasopressin V1a): 1%
% Inhibition of Control Specific Binding (Histamine H1,H2): < 0%
tolerability (body weights, clinical signs; in words) [3]: well tolerated
% Inhibition of Control Specific Binding (Sigma): 20%
% Inhibition of Control Specific Binding (Bombesin BB): < 0%
EC50 (PD-L1 [4]): 0.034 µM
% Inhibition of Control Specific Binding [5]: 1%
% Inhibition of Control Specific Binding [6]: ≤ 6%
% Inhibition of Control Specific Binding (TNFα): < 0%
EC50 (PD-L1 [7]): 0.0154 ± 0.0013 µM
% Inhibition of Control Specific Binding [8]: < 0%
inhibition at 10 µM (Bradykinin B2): < 0%
EC50 (PD-L2 [9]): 0.0783 µM
IFN-γ (human PBMCs; 24 hours, Normal density, 10nM): BLoD
IFN-γ (human PBMCs; 24 hours, Normal density, 50nM): BLoD
IFN-γ (human PBMCs; 24 hours, Normal density, 100nM): BLoD
IFN-γ (human PBMCs; 24 hours, Normal density, 250nM): BLoD
IFN-γ (human PBMCs; 24 hours, Normal density, 500nM): BLoD
IFN-γ (human PBMCs; 24 hours, Normal density, 1000nM): BLoD
IFNγ (human PBMCs; 10 nM): BLOD
IFNγ (human PBMCs; 50 nM): BLOD
IFNγ (human PBMCs; 100 nM): BLOD
IFNγ (human PBMCs; 250 nM): BLOD
IFNγ (human PBMCs; 500 nM): BLOD
IFNγ (human PBMCs; 1000 nM): BLOD
IFN-γ (human PBMCs; human, 24 h, 10 nM): 2.8 ± 1.9 pg/mL
IFN-γ (human PBMCs; human, 24 h, 50 nM): 1.5 ± 1.0 pg/mL
IFN-γ (human PBMCs; human, 24 h, 100 nM): 1.5 ± 0 pg/mL
IFN-γ (human PBMCs; human, 24 h, 250 nM): 4.0 ± 0.7 pg/mL
IFN-γ (human PBMCs; human, 24 h, 500 nM): 6.8 ± 1.5 pg/mL
IFN-γ (human PBMCs; human, 24 h, 1000 nM): 5.8 ± 1.4 pg/mL
cytokine induction (in words) (human PBMCs; normal and high-density culture conditions): did not induce significant levels of cytokines
binding to parental CHO-K1 cells (in words) (parental CHO-K1 cells): lack of binding
